One experiment has as its target T1, human FPR1 (Homo sapiens, UniProt P21462).
T1 sequence (P21462 1-350): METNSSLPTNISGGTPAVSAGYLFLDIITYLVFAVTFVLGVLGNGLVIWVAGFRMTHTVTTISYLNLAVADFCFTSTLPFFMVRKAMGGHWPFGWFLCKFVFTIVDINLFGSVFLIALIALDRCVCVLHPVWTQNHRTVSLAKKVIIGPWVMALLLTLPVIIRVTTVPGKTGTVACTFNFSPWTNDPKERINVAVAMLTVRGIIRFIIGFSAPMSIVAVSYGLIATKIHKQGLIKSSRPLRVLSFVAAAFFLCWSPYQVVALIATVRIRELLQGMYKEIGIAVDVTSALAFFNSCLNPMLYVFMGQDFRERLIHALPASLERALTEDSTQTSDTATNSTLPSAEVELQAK
In words: FPR1 cyclic adenosine monophosphate (cAMP) assay. The format is cell-based. The conditions noted are these: CHO cells overexpressing human FPR1; forskolin 10 μM; inhibition of cAMP production; HTRF; read-out: hFPR1 cAMP2 EC50. Put shortly:
(§1)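 Gi-coupled activity is read as suppression of forskolin-stimulated cAMP (10 μM final for FPR1, 5 μM final for FPR2; IBMX 200 μM final) in recombinant CHO cells, 30 min incubation at rt, HTRF detection.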
(In general: cAMP levels reflect the balance of adenylyl cyclase and phosphodiesterase activity.)

A further experiment concerns the target T2, human FPR2 (Homo sapiens, UniProt P25090).
T2 sequence (P25090 1-351): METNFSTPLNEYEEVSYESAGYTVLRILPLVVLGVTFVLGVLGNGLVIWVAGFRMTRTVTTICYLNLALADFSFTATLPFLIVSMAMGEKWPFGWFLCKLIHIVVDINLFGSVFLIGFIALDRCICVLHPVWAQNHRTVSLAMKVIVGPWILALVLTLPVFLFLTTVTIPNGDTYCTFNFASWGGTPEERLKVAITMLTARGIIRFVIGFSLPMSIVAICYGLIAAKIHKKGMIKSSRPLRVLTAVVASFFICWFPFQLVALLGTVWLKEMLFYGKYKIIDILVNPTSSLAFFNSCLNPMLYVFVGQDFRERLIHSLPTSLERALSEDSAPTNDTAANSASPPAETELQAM
The experiment is described as follows: FPR2 cyclic adenosine monophosphate (cAMP) assay. Type of experiment: cell-based. The conditions noted are these: CHO cells overexpressing human FPR2; forskolin 5 μM; inhibition of cAMP production; HTRF; read-out: hFPR2 cAMP2 EC50. Put shortly:
as §1

The EC50 is the concentration giving half of the maximal effect. For the compound `COc1cc(F)c(-c2c(NC(=O)c3ccc(OC(F)F)cc3)c(=O)n(-c3nc(C(C)(C)C)ccc3C#N)n2C)c(F)c1` [Example 190, N-[2-(6-tert-butyl-3-cyanopyridin-2-yl)-5-(2,6-difluoro-4-methoxyphenyl)-1-methyl-3-oxo-2,3-dihydro-1H-pyrazol-4-yl]-4-(difluoromethoxy)benzamide], the results for the EC50 at human FPR1 and at human FPR2 were more than 10000 nM and 3 nM, respectively.

In the case of `COc1cc(F)c(-c2c(NC(=O)c3ccc(OC(F)F)cc3)c(=O)n(-c3nc(C4CCC4)ccc3C#N)n2C)c(F)c1` [Example 191, N-(2-(3-cyano-6-cyclobutylpyridin-2-yl)-5-(2,6-difluoro-4-methoxyphenyl)-1-methyl-3-oxo-2,3-dihydro-1H-pyrazol-4-yl)-4-(difluoromethoxy)benzamide], the EC50 at human FPR1 stood at 4800 nM; at human FPR2, 2 nM.

As to `CCOC1(c2ccc(C#N)c(-n3c(=O)c(NC(=O)c4ccc(OC(F)F)cc4)c(-c4c(F)cc(OC)cc4F)n3C)n2)CC1` [Example 192, N-{2-[3-cyano-6-(1-ethoxycyclopropyl)pyridin-2-yl]-5-(2,6-difluoro-4-methoxyphenyl)-1-methyl-3-oxo-2,3-dihydro-1H-pyrazol-4-yl}-4-(difluoromethoxy)benzamide], the EC50 at human FPR1 is more than 10000 nM; on human FPR2, 4 nM.

In the case of `COc1cc(F)c(-c2c(NC(=O)c3ccc(OC(F)F)cc3)c(=O)n(-c3nc(C(C)(C)F)ccc3C#N)n2C)c(F)c1` [Example 194, N-{2-[3-cyano-6-(2-fluoropropan-2-yl)pyridin-2-yl]-5-(2,6-difluoro-4-methoxyphenyl)-1-methyl-3-oxo-2,3-dihydro-1H-pyrazol-4-yl}-4-(difluoromethoxy)benzamide], the figures for the EC50 on human FPR1 and on human FPR2 were more than 10000 nM and 5 nM, respectively.

In the case of `COc1cc(F)c(-c2c(NC(=O)c3ccc(OC(F)F)cc3)c(=O)n(-c3nc(CO)ccc3C(F)(F)F)n2C)c(F)c1` [Example 195, N-[5-(2,6-difluoro-4-methoxyphenyl)-2-[6-(hydroxymethyl)-3-(trifluoromethyl)pyridin-2-yl]-1-methyl-3-oxo-2,3-dihydro-1H-pyrazol-4-yl]-4-(difluoromethoxy)benzamide], the EC50 is more than 10000 nM on human FPR1 and 14 nM at human FPR2.

In the case of `COCc1ccc(C(F)(F)F)c(-n2c(=O)c(NC(=O)c3ccc(OC(F)F)cc3)c(-c3c(F)cc(OC)cc3F)n2C)n1` [Example 196, N-[5-(2,6-difluoro-4-methoxyphenyl)-2-[6-(methoxymethyl)-3-(trifluoromethyl)pyridin-2-yl]-1-methyl-3-oxo-2,3-dihydro-1H-pyrazol-4-yl]-4-(difluoromethoxy)benzamide], the results for the EC50 at human FPR1 and on human FPR2 were more than 10000 nM and 9 nM, respectively.

For `COc1cc(F)c(-c2c(NC(=O)c3ccc(OC(F)F)cc3)c(=O)n(-c3ncccc3Cl)n2C)c(F)c1` [Example 197, N-[2-(3-chloropyridin-2-yl)-5-(2,6-difluoro-4-methoxyphenyl)-1-methyl-3-oxo-2,3-dihydro-1H-pyrazol-4-yl]-4-(difluoromethoxy)benzamide], the EC50 at human FPR1 is more than 10000 nM; on human FPR2, 16 nM.

Turning to `COc1cc(F)c(-c2c(NC(=O)c3ccc(OC(F)F)cc3)c(=O)n(-c3cc(OC)ccc3Cl)n2C)c(F)c1` [Example 198, N-[2-(2-chloro-5-methoxyphenyl)-5-(2,6-difluoro-4-methoxyphenyl)-1-methyl-3-oxo-2,3-dihydro-1H-pyrazol-4-yl]-4-(difluoromethoxy)benzamide], the figures for the EC50 on human FPR1 and on human FPR2 were more than 10000 nM and 13 nM, respectively.

For `COc1cc(F)c(-c2c(NC(=O)c3ccc(OC(F)F)cc3)c(=O)n(-c3nccc(C4CCCCC4)c3C#N)n2C)c(F)c1` [Example 199, N-[2-(3-cyano-4-cyclohexylpyridin-2-yl)-5-(2,6-difluoro-4-methoxyphenyl)-1methyl-3-oxo-2,3-dihydro-1H-pyrazol-4-yl]-4-(difluoromethoxy)benzamide], the EC50 at human FPR1 came to 900 nM; at human FPR2 it was 5 nM.

As to `COc1cc(F)c(-c2c(NC(=O)c3ccc(OC(F)F)cc3)c(=O)n(-c3nccc(C)c3C#N)n2C)c(F)c1` [Example 201, N-[2-(3-cyano-4-methylpyridin-2-yl)-5-(2,6-difluoro-4-methoxyphenyl)-1-methyl-3-oxo-2,3-dihydro-1H-pyrazol-4-yl]-4-(difluoromethoxy)benzamide], the EC50 on human FPR1 was more than 10000 nM; at human FPR2 it was 4 nM.

In the case of `COc1cc(F)c(-c2c(NC(=O)c3ccc(OC(F)F)cc3)c(=O)n(-c3nc(N4CCN(C)CC4)ccc3C#N)n2C)c(F)c1` [Example 202, N-{2-[3-cyano-6-(4-methylpiperazin-1-yl)pyridin-2-yl]-5-(2,6-difluoro-4-methoxyphenyl)-1-methyl-3-oxo-2,3-dihydro-1H-pyrazol-4-yl}-4-(difluoromethoxy)benzamide], the EC50 at human FPR1 is 2500 nM; on human FPR2, 32 nM.

As for `COc1cc(F)c(-c2c(NC(=O)c3ccc(OC(F)F)cc3)c(=O)n(-c3nc(Cl)ccc3N3CC(C)(O)C3)n2C)c(F)c1` [Example 203, N-{2-[6-chloro-3-(3-hydroxy-3-methylazetidin-1-yl)pyridin-2-yl]-5-(2,6-difluoro-4-methoxyphenyl)-1-methyl-3-oxo-2,3-dihydro-1H-pyrazol-4-yl}-4-(difluoromethoxy)benzamide], the EC50 at human FPR1 was more than 10000 nM; on human FPR2, 5 nM.

Take `COc1cc(F)c(-c2c(NC(=O)c3ccc(OC(F)F)cc3)c(=O)n(-c3cccc(CN(C)C)n3)n2C)c(F)c1` [Example 204, N-[5-(2,6-difluoro-4-methoxyphenyl)-2-{6-[(dimethylamino)methyl]pyridin-2-yl}-1-methyl-3-oxo-2,3-dihydro-1H-pyrazol-4-yl]-4-(difluoromethoxy)benzamide]: the values for the EC50 at human FPR1 and at human FPR2 were more than 10000 nM and 15 nM, respectively.

With `COc1cc(F)c(-c2c(NC(=O)c3ccc(OC(F)F)cc3)c(=O)n(-c3cccc(CN4CCN(C)CC4)n3)n2C)c(F)c1` [Example 205, N-[5-(2,6-difluoro-4-methoxyphenyl)-1-methyl-2-{6-[(4-methylpiperazin-1-yl)methyl]pyridin-2-yl}-3-oxo-2,3-dihydro-1H-pyrazol-4-yl]-4-(difluoromethoxy)benzamide], the values for the EC50 on human FPR1 and at human FPR2 were more than 10000 nM and 25 nM, respectively.

For `COc1cc(F)c(-c2c(NC(=O)c3ccc(OC(F)F)cc3)c(=O)n(-c3cccc(N4CCN(CCS(C)(=O)=O)CC4)n3)n2C)c(F)c1` [Example 206, N-[5-(2,6-difluoro-4-methoxyphenyl)-2-{6-[4-(2-methanesulfonylethyl)piperazin-1-yl]pyridin-2-yl}-1-methyl-3-oxo-2,3-dihydro-1H-pyrazol-4-yl]-4-(difluoromethoxy)benzamide], the results for the EC50 at human FPR1 and on human FPR2 were more than 5000 nM and 44 nM, respectively.

`COc1cc(F)c(-c2c(NC(=O)c3ccc(OC(F)F)cc3)c(=O)n(-c3cccc(N4CCN(CC5CC5)CC4)n3)n2C)c(F)c1` [Example 207, N-(2-{6-[4-(cyclopropylmethyl)piperazin-1-yl]pyridin-2-yl}-5-(2,6-difluoro-4-methoxyphenyl)-1-methyl-3-oxo-2,3-dihydro-1H-pyrazol-4-yl)-4-(difluoromethoxy)benzamide]: the figures for the EC50 at human FPR1 and at human FPR2 were 140 nM and 3 nM, respectively.

In the case of `COc1cc(F)c(-c2c(NC(=O)c3ccc(OC(F)F)cc3)c(=O)n(-c3cccc(N4CCN(CCCO)CC4)n3)n2C)c(F)c1` [Example 208, N-[5-(2,6-difluoro-4-methoxyphenyl)-2-{6-[4-(3-hydroxypropyl)piperazin-1-yl]pyridin-2-yl}-1-methyl-3-oxo-2,3-dihydro-1H-pyrazol 4-yl]-4-(difluoromethoxy)benzamide], the figures for the EC50 on human FPR1 and at human FPR2 were more than 10000 nM and 3 nM, respectively.

As to `COc1cc(F)c(-c2c(NC(=O)c3ccc(OC(F)F)cc3)c(=O)n(-c3nc(Cl)ccc3N(C)C)n2C)c(F)c1` [Example 209, N-{2-[6-chloro-3-(dimethylamino)pyridin-2-yl]-5-(2,6-difluoro-4-methoxyphenyl)-1-methyl-3-oxo-2,3-dihydro-1H-pyrazol-4-yl}-4-(difluoromethoxy)benzamide], the figures for the EC50 at human FPR1 and on human FPR2 were more than 10000 nM and 3 nM, respectively.

Take `COc1cc(F)c(-c2c(NC(=O)c3ccc(OC(F)F)cc3)c(=O)n(-c3nc(N4CC(C)(O)C4)ccc3F)n2C)c(F)c1` [Example 210, N-[5-(2,6-difluoro-4-methoxyphenyl)-2-[3-fluoro-6-(3-hydroxy-3-methylazetidin-1-yl)pyridin-2-yl]-1-methyl-3-oxo-2,3-dihydro-1H-pyrazol-4-yl]-4-(difluoromethoxy)benzamide]: the values for the EC50 on human FPR1 and on human FPR2 were 4800 nM and 11 nM, respectively.

Source of the values: patent US12577206B2 (BRISTOL-MYERS SQUIBB COMPANY, priority 2020, dated 2026).
